Counter-ions that a name gives are not always drawn. One block for each compound: values may come before it.
What was measured:
[1] = Thermal stability by DSC and TG/DSC analysis
Protocol: DSC analyses were carried out by using a SETARAM 141 Differential Scanning Calorimeter (SETARAM, 69300 Caluire, France). No purge gas was used. The reference material was an empty aluminum pan without cap. The samples were weighed in open aluminum pans, then placed in the analyzer. The analyses were performed within various temperature ranges using a 2°.min^−1 heating rate. SETARAM ACQUISITION Module software (v. 1.4) was used as control software and data processing was performed by using the SETARAM DATA PROCESSING Module software (v. 1.39).
TG/DSC measurements were carried out by using a NETZSCH STA 449C Jupiter Thermogravimetric Analyzer (NETZSCH, D-95100 Selb, Germany) equipped with a low temperature furnace. The purge gas used was helium (gas flow=60 mL/min) and the reference material was an empty aluminum pan without cap. The samples were weighed in open aluminum pans, then placed in the analyzer. The analyses were performed within various temperature ranges using a 2°.min^−1 heating rate. PROTEUS software was used for the acquisition and data processing (v. 4.7.0).

[2] = DVS hygroscopicity and moisture measurement, second procedure; type: physicochemical; settings: 22° C.
Protocol: Moisture sorption isotherms of the crystalline phases were obtained by using a DVS-1 automated water sorption analyzer (Surface Measurements Systems, Alperton, Middlesex, United Kingdom). The reference material was an empty glass pan and the total gas flow was 200 sccm·min^−1 (Standard Cubic Centimeters per minute). Temperature of analysis was 22° C. For each measurement, precisely ca. 15 mg of the sample were weighed in a glass pan beforehand allowed for the tare, then placed in the analyzer.
As a first stage, dry nitrogen (0% R.H) was applied until constant weight of the sample in order to eliminate adsorbed or absorbed water (potential dehydration). Then, mass variations were recorded while R.H. was increased by steps of 10% R.H. The automated analyzer was allowed to start the following step as soon as the mass variation of the sample was less than 5.10^−4 mg·min^−1. The upper limit was adjusted below the deliquescence of the compound and never exceeded 98% R.H. This second stage was afterward followed by a stepped decrease of R.H. down to 0% R.H. This overall procedure constitutes a ‘Full cycle’ analysis. Several successive full cycles can be applied to the same sample.
DVSWin (v 2.18) was used as control and data collection software whereas data processing was performed by using DVS Standard Analysis Suite (v 4.3).
Further parameters used in DVS procedures are as follows: • Protocole Dynamic Vapour Sorption/Appareil ‘Surface Measurements Systems • Automated Water Sorption Analyser’/model: DVS-1 • Analysis method: • step mode, • Temperature: […] • number of steps, • step dm/dt<0.0005 (mg/min) • First stage R.H.=0% • Last Stage R.H.=98% • Half cycle or Full cycle (or several successive full cycles) • dm/dt window: 5 • Minimum Stage: 20 min • Maximum Stage: 120 min • Total Gaz Flow: 200 • Nitrogen: 200 Bars, H2O<3 ppm, O2<2 ppm, Ref. Azote N50 B50*0 • Initial sample weight: • Software—data collection and data processing • DVSWin v2.18 (control software), • DVS Standard Analysis Suite v4.3 (analysis software).]

[3] = Chemical stability on storage, evaluated by HPAEC analysis
[4] = DVS hygroscopicity and moisture measurement, first procedure; type: physicochemical
Protocol: Moisture sorption isotherms of amorphous BrHPP was obtained by using an automated water sorption analyzer. Temperature of analysis was 20° C. For each measurement, precisely ca. 25 mg of the sample were weighed in a pan beforehand allowed for the tare, then placed in the analyzer.
After a stabilization stage at 0% R.H. (R.H. stands for Relative Humidity), mass variations were recorded while R.H. was increased by steps of 20% R.H. The upper limit was adjusted to 80% R.H. This second stage was afterward followed by a stepped decrease of R.H. down to 0% R.H. This overall procedure constitutes a ‘Full cycle’ analysis. Several successive full cycles can be applied to the same sample.

- temperature of the fusion-degradation event (thermal stability) ([1]; DSC, non solvated crystalline form): above 146 °C
- reversible and reproducible mass variation, (de)hydration (Rac)-Mix-I / (Rac)-Mix-III ([2]; R.H. in the range of 50%-70%): 6.1%
- cumulated mass variations ([2]; between 0% and 50% R.H.): < 0.4%
- cumulated mass variations ([2]; high relative humidity (up to 90%)): < 0.2%
SMILES: CC(O)(CBr)CCOP(=O)(O)OP(=O)(O)O (racemic) [BrHPP benzathin salt (Rac)-Mix-I, 3-(bromomethyl)-3-butanol-1-yl diphosphoric acid, N,N′-dibenzylethylenediammonium salts]

- anionic purity of the sample over the storage period ([3]; glass vial, room temperature (20-25° C.), ambient atmosphere (50-70% RH), at least 5 months, HPAEC): 99.5%±0.2%
- period over which the compound was found to be stable ([3]; stored in a glass vial at room temperature (20-25° C.) and ambient atmosphere (50-70% Relative Humidity)): at least 5 months
SMILES: CC(O)(CBr)CCOP(=O)(O)OP(=O)(O)O (stereo not shown) [3-(bromomethyl)-3-butanol-1-yl diphosphoric acid, diquininium salts]

- thermal behaviour in TG/DSC analysis ([1]; fluctuations of DSC signal and continuous mass loss, even for temperatures close to ambient): undergoes chemical degradations
- degradation on storage ([3]; 3 months, room temperature (about 25° C.), in contact with ambient atmosphere): 50%
- sensitivity to atmospheric water ([4]; even for low R.H.): very sensitive to atmospheric water
- deliquescence ([4]; high relative humidities (≧80% R.H.), 20° C., mass not stabilized after 2300 minutes): becomes deliquescent
SMILES: CC(O)(CBr)CCOP(=O)(O)OP(=O)(O)O (racemic) [BrHPP sodium salt, reference compound]

— US20080300222A1, “Phosphoantigen Salts Of Organic Bases And Methods For Their Crystallization” (Innate Pharma, priority 2005, published 2008)
